Among the data in US9926261B2, “Bacterial efflux pump inhibitors” (Rutgers, The State University of New Jersey, priority 2015, dated 2018) are Enhancement values, retold here.

For the assay, the system named is Escherichia coli W4573. The experiment in a line: Test A. Minimum Inhibitory Concentration (MIC)-based assay for efflux pump inhibition (enhancement of minocycline MIC). Type of assay: cell-based. As to conditions: ratio of minocycline MIC in absence of test compound to minocycline MIC in presence of test compound, test compound 12.5 μg/mL, CAMH broth, 24 hours at 37° C. As to the method:
Test A. Minimum Inhibitory Concentration (MIC)-Based Assay for Efflux Pump Inhibition:
MIC-based assays were used to evaluate the impact of potential efflux pump inhibiting (EPI) compounds on the MIC of minocycline, an antibiotic known to be a substrate for Gram-negative bacterial efflux pumps. The assays were conducted in accordance with Clinical and Laboratory Standards Institute (CLSI) guidelines for broth microdilution, with the modification that assays were conducted in the presence and absence of the test EPI compounds. When present, the EPI compounds were added to cation-adjusted Mueller-Hinton (CAMH) broth (Becton, Dickinson and Co., Franklin Lakes, N.J.) at a final concentration of 12.5 μg/mL.
Log-phase Gram-negative bacteria were added to 96-well microtiter plates (at 5×10^5 colony forming units (CFU) per mL) containing two-fold serial dilutions of minocycline in CAMH broth either in the absence or presence of the test EPI compounds. In all assays, each serial dilution of minocycline was present in duplicate. The final volume in each well was 0.1 mL, and the microtiter plates were incubated aerobically for 24 hours at 37° C. Bacterial growth was then monitored by measuring the optical density (OD) at 600 nm using a VersaMax® plate reader (Molecular Devices, Inc., Sunnyvale, Calif.), with the MIC being defined as the lowest compound concentration at which growth was ≥90% inhibited compared to antibiotic-free control. The following Gram-negative bacterial strains were included in these assays: • Escherichia coli W4573, ATCC 25922, and ATCC BAA-201 (an extended spectrum β-lactamase (ESBL)-producing strain that expresses the TEM-3 β-lactamase). • Klebsiella pneumoniae ATCC 13883 and ATCC 700603 (an ESBL-producing strain that expresses the SHV-18 β-lactamase). • Pseudomonas aeruginosa ATCC 27853. The efflux pump mutant E. coli strain N43 (acrA1) was used as a positive control.
The enhancement is the ratio of the minocycline MIC in the absence of test compound to the minocycline MIC in the presence of test compound.

For the molecule `Cl.Cl.NCCC[C@H](N)CNC(=O)c1ccccc1C(F)(F)F` [Example 1, (S)-5-(2-(trifluoromethyl)benzamido)pentane-1,4-diaminium chloride], the Enhancement came to 1.

With `Cl.Cl.NCCC[C@H](N)CNC(=O)c1cccc(C(F)(F)F)c1` [Example 2, (S)-5-(3-(trifluoromethyl)benzamido)pentane-1,4-diaminium chloride], the Enhancement amounted to 2.

Regarding `Cl.Cl.NCCC[C@H](N)CNC(=O)c1ccc(C(F)(F)F)cc1` [Example 3, (S)-5-(4-(trifluoromethyl)benzamido)pentane-1,4-diaminium chloride], the Enhancement stood at 4.

On to `Cl.Cl.NCCC[C@H](N)CNC(=O)c1ccccc1-c1ccccc1` [Example 4, (S)-5-([1,1′-biphenyl]-2-carboxamido)pentane-1,4-diaminium chloride], for which the Enhancement was 2.

Consider `Cl.Cl.NCCC[C@H](N)CNC(=O)c1cc(C(F)(F)F)ccc1C(F)(F)F` [Example 5, (S)-5-(2,5-bis(trifluoromethyl)benzamido)pentane-1,4-diaminium chloride], for which the Enhancement is reported as 2.

On to `Cl.Cl.NCCC[C@H](N)CNC(=O)c1ccc(C(F)(F)F)c(C(F)(F)F)c1` [Example 6, (S)-5-(3,4-Bis(trifluoromethyl)benzamido)pentane-1,4-diaminium chloride], for which the Enhancement is recorded as 32.

As for `Cl.Cl.NCCC[C@H](N)CNC(=O)c1cc(C(F)(F)F)cc(C(F)(F)F)c1` [Example 7, (S)-5-(3,5-bis(trifluoromethyl)benzamido)pentane-1,4-diaminium chloride], the Enhancement was found to be 16.

Turning to `Cl.Cl.NCCC[C@@H](N)CNC(=O)c1cc(C(F)(F)F)cc(C(F)(F)F)c1` [Example 8, (R)-5-(3,5-bis(trifluoromethyl)benzamido)pentane-1,4-diaminium chloride], the Enhancement came to 8.

Consider `Cl.Cl.NCC[C@H](N)CNC(=O)c1cc(C(F)(F)F)cc(C(F)(F)F)c1` [Example 9, (S)-4-(3,5-bis(trifluoromethyl)benzamido)butane-1,3-diaminium chloride], for which the Enhancement is 16.

Turning to `CC(C)(C)c1cc(C(=O)NC[C@@H](N)CCCN)cc(C(C)(C)C)c1.Cl.Cl` [Example 10, (S)-5-(3,5-di-tert-butylbenzamido)pentane-1,4-diaminium chloride], the Enhancement amounted to 64.

With `Cl.Cl.NCCC[C@H](N)CNC(=O)c1cc(-c2ccccc2)cc(-c2ccccc2)c1` [Example 11, (S)-5-([1,1′:3′,1″-terphenyl]-5′-carboxamido)pentane-1,4-diaminium chloride], the Enhancement turned out to be 128.

For `NC[C@@H](N)CCCNC(=O)c1cc(-c2ccccc2)cc(-c2ccccc2)c1` [Example 12, (S)-5-([1,1′:3′,1″-terphenyl]-5′-carboxamido)pentane-1,2-diaminium chloride], the Enhancement is recorded as 2.

Consider `Cl.Cl.NCCC[C@H](N)CNC(=O)c1cc(-c2ccc(F)cc2)cc(-c2ccc(F)cc2)c1` [Example 13, (S)-5-(4,4″-difluoro-[1,1′:3′,1″-terphenyl]-5′-carboxamido)pentane-1,4-diaminium chloride], for which the Enhancement worked out at 128.
